Experimental data as given in patent US20250092093A1, “Androgen receptor protein degradation-inducing peptides for prostate cancer treatment” (priority 2023, published 2025).
Changes are numbered by the printed parent chain. Each block holds one molecule with its values, some of them ahead of it. Ends that are not written are not given here. * marks the point of attachment. Myristoyl = CCCCCCCCCCCCCC(=O)*

Assays:
AR protein [1] = target: T1, AR protein (Homo sapiens, UniProt P10275); details: reported in the literature [3]; cited from earlier work
T1 sequence (P10275 1-920): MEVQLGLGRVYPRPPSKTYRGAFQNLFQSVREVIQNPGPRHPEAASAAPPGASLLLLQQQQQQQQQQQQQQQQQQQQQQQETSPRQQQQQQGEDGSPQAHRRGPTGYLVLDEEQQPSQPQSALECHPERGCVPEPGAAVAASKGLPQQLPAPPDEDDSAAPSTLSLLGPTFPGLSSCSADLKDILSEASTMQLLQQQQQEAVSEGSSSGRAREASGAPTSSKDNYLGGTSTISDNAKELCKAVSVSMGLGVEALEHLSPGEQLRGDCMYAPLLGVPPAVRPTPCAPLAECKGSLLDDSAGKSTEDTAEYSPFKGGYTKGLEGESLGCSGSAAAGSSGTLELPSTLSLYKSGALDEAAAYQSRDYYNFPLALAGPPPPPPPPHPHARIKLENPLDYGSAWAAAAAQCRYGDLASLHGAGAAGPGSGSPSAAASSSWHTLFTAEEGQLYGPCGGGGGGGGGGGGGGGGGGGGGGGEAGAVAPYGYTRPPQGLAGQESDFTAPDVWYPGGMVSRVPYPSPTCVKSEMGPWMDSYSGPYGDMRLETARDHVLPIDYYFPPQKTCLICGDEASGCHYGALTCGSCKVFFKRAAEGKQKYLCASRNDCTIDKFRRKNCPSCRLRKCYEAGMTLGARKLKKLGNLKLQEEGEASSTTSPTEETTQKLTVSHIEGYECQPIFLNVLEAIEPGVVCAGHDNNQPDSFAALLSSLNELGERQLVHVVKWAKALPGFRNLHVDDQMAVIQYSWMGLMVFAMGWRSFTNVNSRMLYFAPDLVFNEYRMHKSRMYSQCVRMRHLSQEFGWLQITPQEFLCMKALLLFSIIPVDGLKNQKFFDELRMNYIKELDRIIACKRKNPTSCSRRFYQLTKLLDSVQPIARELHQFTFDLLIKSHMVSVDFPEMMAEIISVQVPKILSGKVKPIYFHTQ

AR protein [2] = target: T2, AR protein (Homo sapiens, UniProt P10275, T878A); experiment: AR protein level by western blot in C4-2B cells; format: cell-based; details: 10 micro-M
T2 construct: C4-2B cells were treated with peptides (10 micro-M) for 24 h as indicated, and AR protein levels were assessed by western blots; endogenous in cells; host or cells: C4-2B
T2 sequence (P10275 1-920 T878A): T1 sequence (P10275 1-920) with T878A
Description: (§1) A. C4-2B cells were treated with peptides (10 micro-M) for 24 h as indicated, and AR protein levels were assessed by western blots. B. C4-2B cells were treated with peptides and harvested for western blot assay with an anti-PARP antibody. Actin blot served as a protein loading control. C. Flow cytometry analysis of subG1/GO cell cycle population in C4-2B cells after peptide treatment (10 micro-M) in 2% charcoal-stripped FBS for 24 h. Data represents two experiments. The asterisk indicates a significant difference compared to the DSMO control (p<0.05, Student t-test).
A. Peptide analogs were synthesized as listed in the top panel. The myristylation sequence was conjugated to the N-terminal of the peptide for penetrating the plasma membrane. B. Prostate cancer C4-2B cells were treated with the agents at a concentration of 10 micro-M for 48 h. Cells were harvested for western blot assay with AR antibody (clone PG21). The Actin blot served as a protein loading control. […]
We further characterized the ARi14 peptide for its core sequence of action. The ARi14 peptide was chopped into two fragments, the 7-mer ARi7 peptide (EAAAYQS) and 8-mer ARi8 peptide ([…]), and their AR degradation inducing ability was compared to the original 14-mer peptide (FIG. 3). These peptides were synthesized with an N-terminal myristylation signal to facilitate cellular uptake. […]

AR protein [3] = target: T1, AR protein; experiment: AR protein level by western blot in LAPC-4 cells; format: cell-based; details: 10 micro-M, 24 h, 2% charcoal-stripped FBS
Description: (§2) A. ARi14 peptide was fused with the KDM4A CPP sequence via a short link (KDM4A-ARi14). This fused peptide was labeled with FITC fluorescent dye. B. LAPC-4 cells were treated with the solvent, or the peptides as indicated at 10 micro-M in 2% charcoal-striped FBS-supplied media for 24 h. Cellular proteins were subjected to a western blot with an anti-AR antibody (clone PG21). Actin blot served as a protein loading control. C. Microscopic images were shown for cell viability. Note: white arrows indicate a cluster of dying cells loaded with fluorescent-labeled peptides.
(§3) To achieve a better intracellular distribution of the peptide, a cellular penetrating peptide (CPP) derived from the KDM4A protein was fused to the N-terminal of the ARil4 peptide via a short link sequence GGGS (FIG. 2A).

LAPC-4 cells = experiment: Cell viability / cell death by microscopic images in LAPC-4 cells; format: cell-based; details: 10 micro-M, 24 h
Description: as §2, §3

C4-2B cells [4] = experiment: Flow cytometry analysis of subG1/GO cell cycle population in C4-2B cells; format: cell-based; details: Enzalutamide-resistant C4-2B cells, 10 micro-M, 24 h, 2% charcoal-stripped FBS
Description: as §1
(§4) We further characterized the ARi14 peptide for its core sequence of action. The ARi14 peptide was chopped into two fragments, the 7-mer ARi7 peptide (EAAAYQS) and 8-mer ARi8 peptide ([…]), and their AR degradation inducing ability was compared to the original 14-mer peptide (FIG. 3). These peptides were synthesized with an N-terminal myristylation signal to facilitate cellular uptake.

C4-2B cells [5] = experiment: Apoptotic cell death by PARP cleavage western blot in C4-2B cells; format: cell-based; details: N-terminal myristylated peptides
Description: as §1, §4

[6] = N-terminal myristylated peptides, 24 h

AR protein levels (AR protein [2]; myristylated peptides, 48 h): largely reduced
Molecule: ARi10: new analog of ARi8, myristylation sequence at the N-terminal (Myristoyl-YQSRDYYNFP)

AR protein level (AR protein [3]): no apparent effect
AR reduction (AR protein [2]; [6]): 78%
Molecule: EAAAYQSRDYYNFP [ARi14, decoy peptide derived from the AR N-terminal domain, amino acids 355-368; myristylated form used in b32]
cell death response / cell viability (LAPC-4 cells): no apparent effect
cell cycle arrest at the subG1/GO phase (C4-2B cells [4]): induced cell cycle arrest

Second part, the molecule before the results:

Molecule: COc1ccc(/C=C/C(=O)/C=C(O)/C=C/c2ccc(OC)c(OC)c2)cc1OC [ASC-J9]
AR protein degradation in prostate cancer cells (AR protein [1]): induced AR protein degradation

Molecule: EAAAYQS [ARi7, 7-mer fragment of ARi14, synthesized with an N-terminal myristylation signal]
impact on the AR protein level (AR protein [2]; [6]): no impact

Molecule: SRDYYNFP [ARi8, 8-mer fragment of ARi14, synthesized with an N-terminal myristylation signal]
AR reduction (AR protein [2]; [6]): 92%
apoptotic cell death evidenced by PARP cleavage (C4-2B cells [5]): more profound apoptotic cell death than ARi14
cell cycle arrest at the subG1/GO phase (C4-2B cells [4]): induced cell cycle arrest
